The results in this text go back to article PMC8402032, “Unsymmetric Cisplatin-Based Pt(IV) Conjugates Containing a PARP-1 Inhibitor Pharmacophore Tested on Malignant Pleural Mesothelioma Cell Lines” (Molecules, 2021).

Data set [1] has as its system MSTO-211H (biphasic phenotype) malignant pleural mesothelioma cells. The data set is described as follows: Cell viability assay (Trypan blue dye exclusion), MSTO-211H. The data set is classed as cell-based, human. The method, then:
(§1) Complexes 6–9 were tested on a panel of human MPM cell lines together with CDDP and SAA1, added for comparison (Table 1). The half-maximal inhibitory concentration, IC50, was determined on MSTO-211H (biphasic phenotype), REN (epithelioid), BR95 (epithelioid), and MM98 (sarcomatoid) cancer cell lines to identify the most promising Pt(IV) conjugate to be further investigated. To determine the number of viable cells, the use of the dye exclusion assay was preferred to the colorimetric assay because of the heterogeneity in the energy metabolism between the different MPM cell lines. This may justify minor differences with respect to the previously published IC50 for CDDP [40].
(§2) Cells were seeded at a density of 10 × 10^4 cells per well in 6-well plates in RPMI medium supplemented with 10% fetal bovine serum (FBS), 100 μg mL^−1 streptomycin, and 10 μg mL^−1 penicillin and incubated overnight at 37 °C in a humidified environment containing 5% CO2 to allow adherence. Cisplatin was dissolved in 0.9% w/v aqueous NaCl brought to pH = 3 with HCl (final stock concentration 1 mM). The Pt(IV) complexes were dissolved in DMSO (final stock concentration 5 mM); the resulting solutions were microfiltered (0.45 μm) and their Pt content was checked by ICP-MS (see Section 3.5.2). These mother solutions were diluted in complete medium to the required concentration range.
(§3) Following 72 h of treatment with the diluent of the compound (Ctrl) or different doses of the Pt compounds, cells were trypsinized and stained with Trypan blue. The number of cells considered viable (unstained cells) was counted in a Bürker haemocytometer within 5 min after staining.

The subject of data set [2] is REN (epithelioid) malignant pleural mesothelioma cells. As to the kind of experiment: Cell viability assay (Trypan blue dye exclusion), REN. The data set is classed as cell-based, human. The note with it: 72 h treatment; for IC50: mean ± sd. The method, then: as §1, §2, §3
The subject of data set [3] is BR95 (epithelioid) malignant pleural mesothelioma cells. As to the kind of experiment: Cell viability assay (Trypan blue dye exclusion), BR95. The data set is classed as cell-based, human. Conditions: 72 h treatment; for IC50: mean ± sd. The method, then:
as §1, §2, §3

Data set [4] has as its system MM98 (sarcomatoid) malignant pleural mesothelioma cells. As to the kind of experiment: Cell viability assay (Trypan blue dye exclusion), MM98. The data set is classed as cell-based, human. The note with it: 72 h treatment; for IC50: mean ± sd. The method, then: as §1, §2, §3
In a further data set the target is T1, PARP-1 (Homo sapiens, UniProt P09874).
T1 construct: endogenous in cells; host or cells: MSTO-211H cells
The data set is described as follows: Western blot of poly(ADP-ribose) (PAR) and PARP-1 in MSTO-211H cells. The note with it: 5 µM, 72 h. The data set is classed as cell-based. The method, then:
The effect of the most promising complex 6 on PARP-1 activity was further evaluated. MSTO-211H cells were treated with equimolar concentrations (5 µM) of 6, CDDP, and 3-ABA for 72 h. The two last compounds were used either alone or in combination in a 1:1 molar ratio. Western blot analysis evaluated the expression of poly(ADP-ribose) (PAR), which is the product of PARP-1 activity (Figure 4A).
For protein analysis, cells were extracted with 1% NP-40 lysis buffer (50 mM Tris-HCl pH 8.5 containing 1% NP-40, 150 mM NaCl, 10 mM EDTA, 10 mM NaF, 10 mM Na4P2O7, and 0.4 mM Na3VO4) with freshly added protease inhibitors (10 μg mL^−1 leupeptin, 4 μg mL^−1 pepstatin, and 0.1 U mL^−1 aprotinin). Lysates were centrifuged at 13,000× g for 10 min at 4 °C and the supernatants were collected and assayed for protein concentration with the Bradford assay method (Bio-Rad). Proteins were separated by SDS-PAGE (sodium dodecyl sulfate polyacrylamide gel electrophoresis) under reducing conditions. Following SDS-PAGE, proteins were transferred to nitrocellulose, reacted with specific antibodies, and then detected with peroxidase-conjugate secondary antibodies and chemioluminescent ECL reagent. Digital images were taken with the Bio-Rad ChemiDocTM Touch Imaging System and quantified using Bio-Rad Image Lab 5.2.1.
Figure 4 (A) Representative Western blot showing poly(ADP-ribose) (PAR) and PARP-1 expression following 72 h MSTO-211H cell treatment with diluent (Ctrl) or 5 µM concentrations of cisplatin (CDDP), 6, CDDP + 3-ABA combination (1:1 ratio), and 3-ABA alone. HSC70 protein was used as loading control. (B) Immunocytochemistry was used to capture representative γH2AX focus images following 72 h MSTO-211H cell treatment with diluent (Ctrl) or 5 µM of complex 6.
(A western blot detects proteins with antibodies after separation by electrophoresis.)

The subject of the next data set is MSTO-211H cells. As to the kind of experiment: Cell uptake (intracellular Pt by ICP-MS). The data set is classed as cell-based, human. Conditions: 10 μM, 4 h treatment, mean ± sd. The method, then:
Cellular accumulation of compounds 6–9 was evaluated by means of the intracellular Pt uptake after 4 h treatment of MSTO-211H cells and expressed as ng Pt per 10^6 cells (Table 1). As expected, the Fmoc protection of 6 and 7 enhances the lipophilicity of the complexes, facilitating their cell uptake. Also the elongation of the organic linker from -(CH2)2- to -(CH2)6- increases (to a minor extent) the lipophilicity in 7 and 9 with respect to 6 and 8.
MSTO-211H cells were seeded in […] Petri dishes and challenged with the compounds and mixtures under investigations (10 μM) in complete medium. At the end of the exposure, cells were washed three times with phosphate buffered saline (PBS) and detached from the Petri dishes using 0.05% Trypsin 1X + 2% EDTA (HyClone, Thermo Fisher). The cells were harvested in fresh complete medium and an automatic cell counting device (Countess®, Life Technologies, Carlsbad, CA, USA) was used to measure the number and the mean diameter from every cell count. The harvested cells were transferred into a borosilicate glass tube and centrifuged at 1100× g rpm for 5 min at room temperature. The supernatant was carefully removed by aspiration, but about 200 μL of the supernatant was left in order to limit the cellular loss. Finally, the cellular pellets were stored at −80 °C. Platinum content determination was performed by ICP-MS (Thermo Optek X Series 2). Complete mineralization was obtained by the addition of 70% w/w HNO3 to each sample (after defrosting), followed by incubation for 1 h at 60 °C in an ultrasonic bath. Before the ICP-MS measurement, the HNO3 was diluted to a final 1% concentration. The instrumental settings were optimized to yield maximum sensitivity for platinum, and the most abundant isotopes of Pt (m/z = 195) and In (m/z = 115, used as internal standard) were quantified. The level of Pt found in cells after the treatment was normalized to the cell number and expressed as ng of Pt per 10^6 cells.

Data set [5] in a line: Reduction with ascorbic acid followed by RP-HPLC. The data set is classed as physicochemical. The note with it: ascorbic acid 10 mM, HEPES 50 mM pH 7.4, 37 °C, cosolvent DMF or MeOH. The method, then:
To verify the activation by reduction mechanism, complexes 6–9 were challenged with the model bioreductant ascorbic acid (AA, 10 mM in water) in HEPES buffer (HEPES = 4-(2-hydroxyethyl)-1-piperazineethanesulfonic acid, 50 mM, pH = 7.4) at 37 °C. The reaction was monitored by following the RP-HPLC peaks over 24 h. The different solubility and retention times required different experimental conditions for the different compounds (cosolvent DMF or MeOH was necessary to maintain the Pt compounds in solution, >5% v/v). For these reasons, complete reduction for 8 and 9 was observed after 8 h, whereas for 6 and 7, the >85% peak area disappeared after 24 h only. […] Complexes 6–9, having very similar coordination skeletons, can be expected to behave in the same way.
The reduction of complexes with ascorbic acid was followed by monitoring of the reduction of the area of their chromatographic peaks via RP-HPLC over 24 h at 37 °C. The Pt compounds were dissolved in methanol or DMF (up to 20 mM) and diluted with different quantities of 50 mM 4-(2-hydroxyethyl)piperazine-1-ethanesulfonic acid (HEPES) buffer (pH = […]) containing 10 mM ascorbic acid. The mixtures were microfiltered to eliminate the precipitated complex. The chromatographic conditions were similar to those for the determination of lipophilicity (see Section 3.4), with different percentages of methanol depending on the complex.

Data set [6] is described as follows: Lipophilicity by RP-HPLC (log k′). The data set is classed as physicochemical. The note with it: RP-HPLC C18, 15 mM formic acid/CH3OH 30/70. The text has this: Since it has been reported that Pt(IV) complexes enter cells by passive diffusion only, with a few exceptions, the evaluation of lipophilicity is key because it is related to the ability of a molecule to passively cross cellular membranes. RP-HPLC techniques are often used to measure the lipophilicity of a compound, since the retention is due to partitioning between the C18 chains of the stationary phase (representing the cellular membrane) and the aqueous eluent (representing the water inside and outside cells). For this purpose, the retention times (tR) of the complexes were transformed as log k′, where k′ = (tR − t0)/t0) and t0 is the column dead-time (Table 1).
RP-HPLC was used to evaluate the capacity factors of the compounds as reported elsewhere. Briefly, a chromatogram for each Pt complex (0.5 mM) was run on a C18 column Phenosphere-NEXT (5-μm, 250 × 4.6 mm ID) with an eluant composition of 15 mM formic acid/CH3OH 30/70 and a flow rate of 0.5 mL min^−1. The corresponding retention time tR was used to calculate log k′, where k′ = (tR − t0)/t0. The dead time of the column t0 was the tR of KCl, added as unretained internal reference.

The mark [7] stands for this setting: 72 h treatment, mean ± sd, read-out: IC50 MSTO-211H.

Read-outs that look alike come from different tables or passages of the source.

T1 sequence (P09874 whole entry): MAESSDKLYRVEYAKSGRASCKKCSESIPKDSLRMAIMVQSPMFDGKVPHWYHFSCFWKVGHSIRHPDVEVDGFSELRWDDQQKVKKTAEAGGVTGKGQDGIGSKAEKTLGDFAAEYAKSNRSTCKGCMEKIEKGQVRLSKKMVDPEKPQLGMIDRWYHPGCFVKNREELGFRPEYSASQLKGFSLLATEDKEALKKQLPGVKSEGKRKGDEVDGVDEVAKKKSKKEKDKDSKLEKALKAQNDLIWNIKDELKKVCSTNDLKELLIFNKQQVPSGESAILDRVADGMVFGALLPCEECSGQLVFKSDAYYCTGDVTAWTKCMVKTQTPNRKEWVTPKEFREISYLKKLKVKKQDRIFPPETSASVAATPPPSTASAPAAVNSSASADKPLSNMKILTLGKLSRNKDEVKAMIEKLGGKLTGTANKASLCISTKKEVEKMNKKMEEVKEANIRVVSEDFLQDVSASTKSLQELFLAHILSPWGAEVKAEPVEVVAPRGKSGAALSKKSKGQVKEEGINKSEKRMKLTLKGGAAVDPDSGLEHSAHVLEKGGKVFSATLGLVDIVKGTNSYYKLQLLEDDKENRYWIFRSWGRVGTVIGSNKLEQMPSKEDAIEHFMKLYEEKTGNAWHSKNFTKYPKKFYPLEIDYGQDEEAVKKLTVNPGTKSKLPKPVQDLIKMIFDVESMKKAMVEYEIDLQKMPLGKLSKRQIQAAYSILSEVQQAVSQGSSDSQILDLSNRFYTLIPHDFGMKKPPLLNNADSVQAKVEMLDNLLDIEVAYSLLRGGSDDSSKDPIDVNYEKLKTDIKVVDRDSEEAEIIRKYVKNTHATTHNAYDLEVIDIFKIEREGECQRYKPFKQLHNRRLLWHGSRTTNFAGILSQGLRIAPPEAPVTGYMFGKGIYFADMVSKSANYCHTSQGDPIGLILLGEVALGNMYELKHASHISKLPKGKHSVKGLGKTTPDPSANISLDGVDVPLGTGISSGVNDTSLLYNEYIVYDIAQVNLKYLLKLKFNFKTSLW

What is called IC50 is the point on the concentration scale where inhibition reaches its midpoint. `N.N.[Cl][Pt][Cl]` [Cisplatin, CDDP, (SP-4-2)-diamminedichloridoplatinum(II), reference compound]: the IC50 in data set [1] (setting [7]) is 1.14 ± 0.07 µM; in data set [2] it was 3.07 ± 0.43 µM; in data set [3], 2.15 ± 0.29 µM; in data set [4] it was 1.75 ± 0.09 µM. For the same molecule, the PARP-1 cleavage entry at PARP-1 is given as “did not induce PARP-1 cleavage”. The “PARP-1 parylation (PAR expression)” value on PARP-1 is recorded as “increase in PARP-1 parylation”. Further, the “Pt Uptake” value in the data set with MSTO-211H cells is 9.23 ± 0.96 ng Pt per 10^6 Cells.
Take `NC(=O)c1cccc(N)c1` [Compound 3-ABA, 3-aminobenzamide, reference compound]: the IC50 in data set [1] (Homo sapiens, MSTO-211H, read-out: IC50 on MSTO-211H) was 5412 ± 28 µM. Also, on PARP-1, the “PARP-1 parylation (PAR expression)” value is reported as “No self-parylation of PARP-1”.
With `CC(=O)[O][Pt]([NH2])([NH2])([Cl])([Cl])[O]C(=O)CCCCCCNC(=O)c1cccc(NC(=O)OCC2c3ccccc3-c3ccccc32)c1` [Compound 7, (OC-6-44)-Acetato-[7-(3-(fmoc-amino)-benzamido)-heptanoato]-diammine-dichlorido-platinum(IV)], the “ratio IC50 (cisplatin)/IC50 (Pt(IV) complex), MSTO-211H” value (“ratio IC50 … MSTO-211H” below) in data set [1] (72 h treatment) is 0.77. Besides, in data set [1] (setting [7]), the IC50 was 1.48 ± 0.02 µM. Besides, in data set [2], the “ratio IC50 (cisplatin)/IC50 (Pt(IV) complex), REN” value (“ratio IC50 (cisplatin)/IC50 … REN” below) is given as 1.4 and half-maximal inhibition (IC50) required 2.22 ± 0.08 µM. Besides, the “peak area disappeared after 24 h” value in data set [5] (24 h) is over 85%. Also, in data set [3], the “ratio IC50 (cisplatin)/IC50 (Pt(IV) complex), BR95” value (“ratio IC50 (cisplatin)/IC50 … BR95” for short) turned out to be 0.98 and the IC50 is 2.19 ± 0.13 µM. Besides, in data set [6], the “Log k′” value was 5.84. For the same molecule, in data set [4], the “ratio IC50 (cisplatin)/IC50 (Pt(IV) complex), MM98” value came out at 3.9 and the IC50 worked out at 0.45 ± 0.08 µM. The “Pt Uptake” value in the data set on MSTO-211H cells was 10.86 ± 1.17 ng Pt per 10^6 Cells.
Regarding `CC(=O)[O][Pt]([NH2])([NH2])([Cl])([Cl])[O]C(=O)CCNC(=O)c1cccc(N)c1` [Compound 8, (OC-6-44)-Acetato[3-(3-aminobenzamido)-propanoato]-diammine-dichlorido-platinum(IV)], the “ratio IC50 … MSTO-211H” value in data set [1] (72 h treatment) was 0.039. For the same molecule, in data set [1] (setting [7]), the IC50 worked out at 28.9 ± 2.9 µM. Moreover, in data set [2], the “ratio IC50 (cisplatin)/IC50 … REN” value is on record as 0.065 and the IC50 came to 46.9 ± 3.2 µM. For the same molecule, the “time to complete reduction” value in data set [5] was 8 h. In data set [3], the “ratio IC50 (cisplatin)/IC50 … BR95” value is listed as 0.038 and the IC50 stood at 56.8 ± 4.3 µM. Besides, the “Log k′” value in data set [6] is listed as 0.25. In data set [4], the “ratio IC50 (cisplatin)/IC50 (Pt(IV) complex), MM98” value is on record as 0.030 and the IC50 turned out to be 58.4 ± 2.7 µM. Moreover, the “Pt Uptake” value in the data set with MSTO-211H cells is 2.50 ± 1.16 ng Pt per 10^6 Cells.
`CC(=O)[O][Pt]([NH2])([NH2])([Cl])([Cl])[O]C(=O)CCCCCCNC(=O)c1cccc(N)c1` [Compound 9, (OC-6-44)-Acetato-[7-(3-aminobenzamido)-heptanoato]-diammine-dichlorido-platinum(IV)]: the “ratio IC50 … MSTO-211H” value in data set [1] (72 h treatment) was 0.021. Moreover, the IC50 was determined as 54.9 ± 3.1 µM in data set [1] (setting [7]), 38.9 ± 2.2 µM in data set [2], 39.7 ± 2.7 µM in data set [3] and 44.1 ± 3.5 µM in data set [4]. In addition, the “ratio IC50 (cisplatin)/IC50 … REN” value in data set [2] turned out to be 0.079. In addition, in data set [5], the “time to complete reduction” value was 8 h. Moreover, the “ratio IC50 (cisplatin)/IC50 … BR95” value in data set [3] was 0.054. For the same molecule, the “Log k′” value in data set [6] is listed as 0.34. Moreover, the “Pt Uptake” value in the data set on MSTO-211H cells was 3.12 ± 0.78 ng Pt per 10^6 Cells.
